ChEMBL document CHEMBL1123320, “Studies in potential filaricides. 18. Synthesis of 2,2'-disubstituted 5,5'-dibenzimidazolyl ketones and related compounds as potential anthelmintics” (1986)

Columns and labels:
Mastomys natalensis [1] = assay: Filaricidal activity against Brugia malayi in Mastomys at a dosage of 200 mg/kg x 5 administered orally; type: functional; conditions: route oral
Mastomys natalensis [2] = assay: Filaricidal activity against Dipetalonema viteae in Mastomys at a dosage of 6.25 mg/kg x 5 administered subcutaneous at a day of 21; type: functional
Mastomys natalensis [3] = assay: Filaricidal activity against Brugia malayi in Mastomys at a dosage of 200 mg/kg x 5 administered orally at a day of 91; type: functional; conditions: route oral
Sigmodon hispidus [4] = assay: Filaricidal activity against Litomosoides carinii in cotton rats at a dosage of 10 mg/kg x 5 administered intraperitoneally at a day of 42; conditions: route intraperitoneal
Rattus norvegicus [5] = assay: Filaricidal activity against Litomosoides carinii in cotton rats at a dosage of 300 mg/kg x 5 administered orally at a day of 21; type: functional; conditions: route oral
Rattus norvegicus [6] = assay: Anthelmintic activity against Hymenolepis nana in rats at a dose of 400x3 mg/kg administered perorally; type: functional
Mastomys natalensis [7] = assay: Filaricidal activity against Brugia malayi in Mastomys at a dosage of 50 mg/kg x 5 administered intraperitoneally at a day of 91; type: functional; conditions: route intraperitoneal
Rattus norvegicus [8] = assay: Filaricidal activity against Litomosoides carinii in cotton rats at a dosage of 10 mg/kg x 5 administered intraperitoneally at a day of 42; type: functional; conditions: route intraperitoneal
Mastomys natalensis [9] = assay: Filaricidal activity against Brugia malayi in Mastomys at a dosage of 50 mg/kg x 5 administered intraperitoneally at a day of 21; type: functional; conditions: route intraperitoneal
Mastomys natalensis [10] = assay: Filaricidal activity against Brugia malayi in Mastomys at a dosage of 50 mg/kg x 5 administered intraperitoneally at a day of 63; type: functional; conditions: route intraperitoneal
Mastomys natalensis [11] = assay: Filaricidal activity against Dipetalonema viteae in Mastomys at a dosage of 300 mg/kg x 5 administered orally at a day of 21; type: functional; conditions: route oral
Mastomys natalensis [12] = assay: Filaricidal activity against Brugia malayi in Mastomys at a dosage of 200 mg/kg x 5 administered orally at a day of 21; type: functional; conditions: route oral
Cricetinae gen. sp. [13] = assay: Anthelmintic activity against Ancylostoma ceylanicum in hamsters at a dose 1x 1 mg/kg administered perorally; type: functional, Cricetulus griseus; conditions: route oral
Mastomys natalensis [14] = assay: Filaricidal activity against Dipetalonema viteae in Mastomys at a dosage of 300 mg/kg x 5 administered orally; type: functional; conditions: route oral
Rattus norvegicus [15] = assay: Filaricidal activity against Litomosoides carinii in cotton rats at a dosage of 300 mg/kg x 5 administered orally at a day of 8; type: functional; conditions: route oral
Mus musculus [16] = assay: Anthelmintic activity against Syphacia obvelata in mice at a dose of 50x1 mg/kg administered perorally; type: functional
Mastomys natalensis [17] = assay: Filaricidal activity against Dipetalonema viteae in Mastomys at a dosage of 6.25 mg/kg x 5 administered subcutaneous at a day of 42; type: functional
Mastomys natalensis [18] = assay: Filaricidal activity against Dipetalonema viteae in Mastomys at a dosage of 6.25 mg/kg x 5 administered subcutaneous at a day of 8; type: functional
Mastomys natalensis [19] = assay: Filaricidal activity against Brugia malayi in Mastomys at a dosage of 50 mg/kg x 5 administered intraperitoneally at a day of 42; type: functional; conditions: route intraperitoneal
Mus musculus [20] = assay: Anthelmintic activity against Syphacia obvelata in mice at a dose of 100x1 mg/kg administered perorally; type: functional
Mastomys natalensis [21] = assay: Filaricidal activity against Dipetalonema viteae in Mastomys at a dosage of 300 mg/kg x 5 administered orally at a day of 8; type: functional; conditions: route oral
Mastomys natalensis [22] = assay: Filaricidal activity against Brugia malayi in Mastomys at a dosage of 200 mg/kg x 5 administered orally at a day of 8; type: functional; conditions: route oral
Sigmodon hispidus [23] = assay: Filaricidal activity against Litomosoides carinii in cotton rats at a dosage of 10 mg/kg x 5 administered intraperitoneally at a day of 21; conditions: route intraperitoneal
Rattus norvegicus [24] = assay: Filaricidal activity against Litomosoides carinii in cotton rats at a dosage of 300 mg/kg x 5 administered orally at a day of 42; type: functional; conditions: route oral
Cricetinae gen. sp. [25] = assay: Anthelmintic activity against Ancylostoma ceylanicum in hamsters at a dose of 0.5x1 mg/kg administered perorally; type: functional, Cricetulus griseus
Mastomys natalensis [26] = assay: Filaricidal activity against Brugia malayi in Mastomys at a dosage of 200 mg/kg x 5 administered orally at a day of 63; type: functional; conditions: route oral
Mastomys natalensis [27] = assay: Filaricidal activity against Dipetalonema viteae in Mastomys at a dosage of 6.25 mg/kg x 5 administered subcutaneous; type: functional
Mastomys natalensis [28] = assay: Filaricidal activity against Brugia malayi in Mastomys at a dosage of 50 mg/kg x 5 administered intraperitoneally at a day of 8; type: functional; conditions: route intraperitoneal
Cricetinae gen. sp. [29] = assay: Anthelmintic activity against Ancylostoma ceylanicum (hook worm) in hamsters at a dose of 1x 1 mg/kg administered perorally; type: functional, Cricetulus griseus; conditions: route oral
Litomosoides carinii = assay: Filaricidal activity against Litomosoides carinii in cotton rats at a dosage of 300 mg/kg x 5 administered orally; conditions: route oral
Sigmodon hispidus [30] = assay: Filaricidal activity against Litomosoides carinii in cotton rats at a dosage of 10 mg/kg x 5 administered intraperitoneally at a day of 8; conditions: route intraperitoneal
Mastomys natalensis [31] = assay: Filaricidal activity against Brugia malayi in Mastomys at a dosage of 200 mg/kg x 5 administered orally at a day of 42; type: functional; conditions: route oral
Mastomys natalensis [32] = assay: Filaricidal activity against Dipetalonema viteae in Mastomys at a dosage of 300 mg/kg x 5 administered orally at a day of 42; type: functional; conditions: route oral
Mastomys natalensis [33] = assay: Filaricidal activity against Brugia malayi in Mastomys at a dosage of 50 mg/kg x 5 administered intraperitoneally; type: functional; conditions: route intraperitoneal

## COC(=O)Nc1nc2cc(C(=O)c3ccccc3)ccc2[nH]1 [MEBENDAZOLE]
Mastomys natalensis [1]
  Death: 0%
Mastomys natalensis [2]
  Removal of microfilariae: 100%
Mastomys natalensis [3]
  Removal of microfilariae: 0%
Sigmodon hispidus [4]
  Removal of microfilariae: 100%
Rattus norvegicus [5]
  Removal of microfilariae: 57.7%
Rattus norvegicus [6]
  Animals cured: 0%
Mastomys natalensis [7]
  Removal of microfilariae: 100%
Rattus norvegicus [8]
  Death: 100%
Mastomys natalensis [9]
  Removal of microfilariae: 65.3%
Mastomys natalensis [10]
  Removal of microfilariae: 100%
Mastomys natalensis [11]
  Removal of microfilariae: 85.5%
Mastomys natalensis [12]
  Removal of microfilariae: 0%
Cricetinae gen. sp. [13]
  Animals cured: 100%
Mastomys natalensis [14]
  Death: 85.4%
Rattus norvegicus [15]
  Removal of microfilariae: 48.8%
Mus musculus [16]
  Animals cured: 0%
Mastomys natalensis [17]
  Removal of microfilariae: 100%
Mastomys natalensis [18]
  Removal of microfilariae: 53.1%
Mastomys natalensis [19]
  Removal of microfilariae: 100%
Mus musculus [20]
  Animals cured: 66.6%
Mastomys natalensis [21]
  Removal of microfilariae: 0%
Mastomys natalensis [22]
  Removal of microfilariae: 0%
Sigmodon hispidus [23]
  Removal of microfilariae: 96.3%
Rattus norvegicus [24]
  Removal of microfilariae: 74.3%
Cricetinae gen. sp. [25]
  Animals cured: 37.5%
  Worm reduction: 72%
Mastomys natalensis [26]
  Removal of microfilariae: 0%
Mastomys natalensis [27]
  Death: 100%
Mastomys natalensis [28]
  Removal of microfilariae: 0%
Cricetinae gen. sp. [29]
  Worm reduction: 100%
Litomosoides carinii
  Death: 33.8%
Sigmodon hispidus [30]
  Removal of microfilariae: 58.6%
Mastomys natalensis [31]
  Removal of microfilariae: 0%
Mastomys natalensis [32]
  Removal of microfilariae: 100%
Mastomys natalensis [33]
  Death: 100%
